Results published in patent US11478526B2, “Methods of reducing neuroinflammation or toxicity induced by amyloid beta (abeta) using glucocorticoid induced leucine zipper (GILZ) analog peptides” (INDIANA UNIVERSITY RESEARCH AND TECHNOLOGY CORPORATION, priority 2016, dated 2022).

Assays:
[1] = tested on: activated p65 NF-κB subunit; assay: Nuclear p65 DNA binding (TransAM NF-κB ELISA) in HFB; type: cell-based, human; conditions: Aβ1-42 exposed, 4 hours
Protocol: (§1) Fetal brain materials (10-20 g) were shipped overnight in chilled Hibernate-E medium (Invitrogen) supplemented with B27 (Invitrogen), GlutaMAX (Invitrogen) and antibiotic-antimycotic solution (Cellgro). HFB were prepared and cultured as described. Briefly, cells were cultured in Neurobasal medium (Invitrogen) without phenol red supplemented with 1×B27, […] GlutaMAX, 1×antibiotic cocktail, 5 ng/mL recombinant fibroblast growth factor 2 (bFGF) (Invitrogen), and 2 μL/mL Normocin (InVivoGen, San Diego, Calif., USA). Cells were counted and seeded onto poly-D-lysine (Sigma-Aldrich) coated 24-well plates (Corning, Lowell, Mass., USA) at 1.5×10^5 cells per well and maintained at 37° C. in a 5% CO2 incubator. Half media changes were performed every 4th day of culture and morphology was monitored via phase contrast microscopy. Culture medium was removed from cells on day 17 (DIV17) and replaced with Neurobasal medium with B27. Appropriate wells were then added vehicle, or carrier peptide or individual GA or control peptide (at 50 μM) for 30 min followed by exposure to Aβ1-42 at a final concentration of 10 μM/well and incubated for 4 hours or 48 hours. Cells and conditioned media were harvested and stored for further analysis. Relative ATP concentration was measured using the CTG kit (Promega). Data is presented as ΔRLU=RLU of Aβ1-42 exposed cells-RLU unexposed cells. Conditioned media collected were assessed for specific cytokines using the OptEIA kits (BD Biosciences). Nuclear and cytoplasmic fractions were extracted using the CelLytic™ NuCLEAR™ Extraction Kit (Sigma) following manufacturer's protocol. Five microgram of nuclear extracts was incubated in a 96-well plate coated with oligonucleotides containing the NF-κβ consensus nucleotide sequence (5′-[…]-3′) (SEQ ID NO: 30). The activated NF-κβ bound to DNA was detected by anti-p65 antibody followed by a peroxidase coupled secondary antibody and substrate using the TransAM kit protocol (Active Motif). Nuclear extracts of Raji cells was used as the positive control.
(§2) Select PGA protects against Aβ1-42 induced toxicity, prevents p65 activation and cytokine response in human fetal brain (HFB) cells. […] Viability in terms of relative luminescent Units (RLU) was quantified using a Glowmax luminometer (Promega, Wis.). Data are presented as ARLU=RLU of Aβ1-42 exposed cells-RLU of unexposed cells. […] The mean RLU of vehicle treated HFB varied between 7352.75+/−1265.2 and 16157.5+/−4950. […] The culture supernatants were assessed for cytokines by ELISA (R&D Systems, Minn.). […] Primary HFB cultured similarly and harvested at the end of 4 hours was assessed for nuclear p65 using TransAM kit for NF-κB p65 (Active Motif, Calif.).

[2] = tested on: primary human fetal brain cells (HFB); assay: CTG viability of primary human fetal brain cultures with or without Aβ1-42; type: cell-based; conditions: for viability of Aβ1-42 exposed HFB cells: Aβ1-42 10 μM
Protocol: Functional assays in human primary mixed brain cultures (HFB). Primary cultures of mixed HFB were prepared from the brain parenchyma of aborted fetuses (80-100 days gestational age). The tissues were obtained from the Birth Defects Research Laboratory (BDRL) at the University of Washington, Seattle with approval from the Indiana University Institutional Review Board (IRB). The IRB determined that the use of anonymous human biological materials received from this depository is not considered as human subjects research (supplementary document, s1). The NIH funded BDRL tissue distribution program operates separately in full compliance with all relevant state and federal laws and regulations with donors providing written informed consent.
as §1, with “Appropriate wells were then added vehicle, or carrier peptide or individual GA or control peptide (at 50 μM) for 30 min followed by exposure to Aβ1-42 at a final concentration of 10 μM/well and incubated for 4 hours or 48 hours.” left out
as §2, with “16157.5+/−4950. Average RLU of cultures exposed to Aβ1-42 varied between 6067.25+/−903.05 and 11574.25+/−4139.3 in different experiments.” for “16157.5+/−4950.”

[3] = LD50 predicted from in-vitro IC50 by regression (Speilmann method); conditions: for LD50 estimated from IC50: Log (LD50)=0.506×(log IC50)+0.475, body weight; for LD50 (mM): score 1/0
Protocol: Lactate dehydrogenase (LDH) assay: To detect direct GA-induced cell lysis we performed LDH release assays (Roche Molecular Diagnostics). […] Approximately 5×10^4 U373 cells/well were cultured in 96-well plates in the presence of increasing concentrations of individual GA or control peptide from 0.5 μM to 500 μM. Cells treated with 2% triton-X 100 (Sigma Aldrich, St. Louis, Mo.) for 10 minutes served as positive control. Untreated cells served as controls for spontaneous LDH-release. Specific LDH-release was calculated according to the following formula: LDH-release %=100*(GA or control peptide treated cells—untreated cells)/(positive control-untreated cells). The IC50 values were extrapolated by logarithmic estimation. The LD50 in mg/kg was predicted using the formula, Log (LD50)=0.506×(log IC50)+0.475. […]

[4] = 50 μM peptide, vs untreated Aβ1-42 exposed cultures
[5] = PGA at IC50 concentration, 24 hours

Row | Substance | nuclear p65 ([1]; 50 μM peptide) | viability of Aβ1-42 exposed HFB cells [2, 4] | LD50 estimated from IC50 [3] [mg/kg] | nuclear p65 ([1]; PGA at IC50 concentration) | tolerance of HFB cultures (ΔRLU, CTG) ([2]; PGA at IC50 concentration) | viability of Aβ1-42 exposed HFB cells [2, 5] | LD50 (mM) [3]
1 | Ac-EPAPESPQV-NH2 [GA-2] | trend towards decreased nuclear p65 | significantly higher | 369.42 | – | – | – | –
2 | Ac-EPAPLAPYG-NH2 [PGA-2] | – | – | 1396.83 | decreased nuclear p65 | well tolerated | significantly higher | 1 (>100)
3 | Ac-EPAPLAPYG-NH2 [GA-1] | trend towards decreased nuclear p65 | significantly higher | 380.44 | – | – | – | –
4 | Ac-EPAPESPQV-NH2 [PGA-4] | – | – | 1693.87 | decreased nuclear p65 | well tolerated | significantly higher | 1 (>100)
